Patent US12655116B2, “Substituted isophthalic acid diamides” (Bayer Aktiengesellschaft, priority 2020, dated 2026)

Assays:
AVEFA = assay: Pre-emergence herbicidal action against AVEFA; type: in vivo, Avena fatua; conditions: pre-emergence
Method in brief: (§1)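 Pre-emergence soil-surface spray of formulated compound (WP or EC; 600 to 800 l/ha; 0.2% wetting agent) over seeds sown in sandy loam. After 3 weeks under greenhouse conditions, damage is estimated visually in percent against untreated plants.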

ECHCG [1] = assay: Pre-emergence herbicidal action against ECHCG; type: in vivo, Echinochloa crus-galli
Method in brief: as §1

ABUTH [2] = assay: Pre-emergence herbicidal action against ABUTH; type: in vivo, Abutilon theophrasti
Method in brief: as §1

ALOMY [3] = assay: Post-emergence herbicidal action against ALOMY; type: in vivo, Alopecurus myosuroides; conditions: Alopecurus myosuroides, 504 h, visual assessment about 3 weeks after treatment vs untreated controls; for pest or weed control at 5 g/ha: dosage 5 g/ha; for pest or weed control at 20 g/ha: dosage 20 g/ha
Method in brief: (§2)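 Spray, one-leaf stage: WP or EC compound in water, 600–800 l/ha, 0.2% wetting agent. Plants held about 3 weeks in the greenhouse, then visually rated in percent of kill compared with untreated controls.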

VERPE = assay: Pre-emergence herbicidal action against VERPE; type: in vivo, Veronica persica; conditions: dosage 80 g/ha; for pest or weed control at 80 g/ha: Veronica persica, 504 h
Method in brief: as §1

PHBPU [4] = assay: Pre-emergence herbicidal action against PHBPU; type: in vivo, Pharbitis purpurea; conditions: dosage 80 g/ha; for pest or weed control at 80 g/ha: Ipomoea purpurea, 504 h
Method in brief: as §1

VIOTR [5] = assay: Post-emergence herbicidal action against VIOTR; type: in vivo, Viola tricolor; conditions: for pest or weed control at 20 g/ha: Viola tricolor, 504 h
Method in brief: as §2

SETVI [6] = assay: Post-emergence herbicidal action against SETVI; type: in vivo, Setaria viridis; conditions: Setaria viridis, 504 h
Method in brief: as §2

SETVI [7] = assay: Pre-emergence herbicidal action against SETVI; type: in vivo, Setaria viridis; conditions: dosage 80 g/ha; for pest or weed control at 80 g/ha: Setaria viridis, 504 h
Method in brief: as §1

POLCO = assay: Pre-emergence herbicidal action against POLCO; type: in vivo, Polygonum convolvulus; conditions: dosage 80 g/ha; for pest or weed control at 80 g/ha: Fallopia convolvulus, 504 h
Method in brief: as §1

MATIN [8] = assay: Pre-emergence herbicidal action against MATIN; type: in vivo, Matricaria inodora; conditions: for pest or weed control at 20 g/ha / pest or weed control at 80 g/ha: Tripleurospermum inodorum, 504 h
Method in brief: as §1

ALOMY [9] = assay: Pre-emergence herbicidal action against ALOMY; type: in vivo, Alopecurus myosuroides; conditions: pre-emergence; for pest or weed control at 80 g/ha / pest or weed control at 20 g/ha: Alopecurus myosuroides, 504 h; for pest or weed control at 20 g/ha: scored visually after 3 weeks, 100% = plants have died, 0% = like control plants
Method in brief: as §1

ECHCG [10] = assay: Post-emergence herbicidal action against ECHCG; type: in vivo, Echinochloa crus-galli
Method in brief: as §2

VIOTR [11] = assay: Pre-emergence herbicidal action against VIOTR; type: in vivo, Viola tricolor; conditions: for pest or weed control at 80 g/ha: Viola tricolor, 504 h
Method in brief: as §1

ABUTH [12] = assay: Post-emergence herbicidal action against ABUTH; type: in vivo, Abutilon theophrasti; conditions: visual assessment about 3 weeks after treatment vs untreated controls; for pest or weed control at 5 g/ha / pest or weed control at 20 g/ha: Abutilon theophrasti, 504 h
Method in brief: as §2

AMARE [13] = assay: Post-emergence herbicidal action against AMARE; type: in vivo, Amaranthus retroflexus; conditions: 20 g/ha, visual assessment about 3 weeks after treatment, 100% = plants have died, 0% = like control plants; for pest or weed control at 20 g/ha: Amaranthus retroflexus, 504 h
Method in brief: as §2

PHBPU [14] = assay: Post-emergence herbicidal action against PHBPU; type: in vivo, Pharbitis purpurea; conditions: Ipomoea purpurea, 504 h, dosage 20 g/ha
Method in brief: as §2

AMARE [15] = assay: Pre-emergence herbicidal action against AMARE; type: in vivo, Amaranthus retroflexus; conditions: for pest or weed control at 20 g/ha / pest or weed control at 80 g/ha: Amaranthus retroflexus, 504 h
Method in brief: as §1

MATIN [16] = assay: Post-emergence herbicidal action against MATIN; type: in vivo, Matricaria inodora; conditions: dosage 20 g/ha
Method in brief: as §2

DIGSA [17] = assay: Pre-emergence herbicidal action against DIGSA; type: in vivo, Digitaria sanguinalis
Method in brief: as §1

DIGSA [18] = assay: Post-emergence herbicidal action against DIGSA; type: in vivo, Digitaria sanguinalis; conditions: 20 g/ha
Method in brief: as §2

[19] = Echinochloa crus-galli, 504 h, 80 g/ha
[20] = Abutilon theophrasti, 504 h, 80 g/ha, scored visually after 3 weeks vs untreated controls (100% = plants have died, 0% = like control plants)
[21] = 80 g/ha, scored visually after 3 weeks vs untreated controls (100% = plants have died, 0% = like control plants)
[22] = Echinochloa crus-galli, 504 h, dosage 20 g/ha
[23] = 20 g/ha, scored visually after 3 weeks vs untreated controls, 100% = plants have died, 0% = like control plants
[24] = 80 g/ha, scored visually after 3 weeks vs untreated controls, 100% = plants have died, 0% = like control plants

Structure (SMILES): CCNC(=O)c1c(Cl)ccc(C(=O)Nc2nnnn2CC)c1Br [Example 2-348]
- pest or weed control at 80 g/ha (AVEFA; Avena fatua, 504 h, 80 g/ha): 100%
- pest or weed control at 80 g/ha (ECHCG [1]; [19]): 100%
- pest or weed control at 80 g/ha (ABUTH [2]; [20]): 100%
- pest or weed control at 5 g/ha (ALOMY [3]): 80%
- pest or weed control at 20 g/ha (ALOMY [3]): 90%
- pest or weed control at 80 g/ha (VERPE): 80%
- pest or weed control at 80 g/ha (PHBPU [4]): 80%
- pest or weed control at 20 g/ha (VIOTR [5]; 20 g/ha): 80%
- pest or weed control at 5 g/ha (SETVI [6]; dosage 5 g/ha): 80%
- pest or weed control at 20 g/ha (SETVI [6]; dosage 20 g/ha): 100%
- pest or weed control at 80 g/ha (SETVI [7]): 100%
- pest or weed control at 80 g/ha (POLCO): 90%
- pest or weed control at 20 g/ha (MATIN [8]; dosage 20 g/ha): 90%
- pest or weed control at 80 g/ha (MATIN [8]; dosage 80 g/ha): 90%
- pest or weed control at 80 g/ha (ALOMY [9]; [21]): 100%
- pest or weed control at 20 g/ha (ALOMY [9]): 90%
- pest or weed control at 20 g/ha (ECHCG [10]; [22]): 80%
- pest or weed control at 80 g/ha (VIOTR [11]; dosage 80 g/ha): 100%
- pest or weed control at 5 g/ha (ABUTH [12]; dosage 5 g/ha): 90%
- pest or weed control at 20 g/ha (ABUTH [12]; dosage 20 g/ha): 90%
- pest or weed control at 20 g/ha (AMARE [13]): 100%
- pest or weed control at 20 g/ha (PHBPU [14]): 80%
- pest or weed control at 20 g/ha (AMARE [15]; [23]): 100%
- pest or weed control at 80 g/ha (AMARE [15]; [24]): 100%

Structure (SMILES): CCn1nnnc1NC(=O)c1ccc(C(F)F)c(C(=O)NC)c1Br [Example 2-225]
- Pre-emergence action against AVEFA in % (AVEFA; 80 g/ha): 80%
- Post-emergence action against MATIN in % (MATIN [16]): 80%
- Pre-emergence action against ECHCG in % (ECHCG [1]; 80 g/ha): 90%
- Pre-emergence action against DIGSA in % (DIGSA [17]; dosage 20 g/ha): 100%
- Pre-emergence action against DIGSA in % (DIGSA [17]; dosage 80 g/ha): 100%
- Pre-emergence action against ABUTH (herbicidal activity) (ABUTH [2]; [21]): 100%
- Pre-emergence action against ABUTH (herbicidal activity in percent) (ABUTH [2]; dosage 20 g/ha, scored visually after 3 weeks vs untreated controls, 100% = plants have died, 0% = like control plants): 100%
- Post-emergence action against DIGSA (DIGSA [18]): 100%
- Pre-emergence action against VERPE in % (VERPE): 100%
- Pre-emergence action against PHBPU in % (PHBPU [4]): 90%
- Post-emergence action against VIOTR in % (VIOTR [5]; 5 g/ha): 100%
- Post-emergence action against VIOTR in % (VIOTR [5]; 20 g/ha): 100%
- Pre-emergence action against SETVI in % (SETVI [7]): 100%
- Pre-emergence action against POLCO in % (POLCO): 90%
- Pre-emergence action against MATIN in % (MATIN [8]; dosage 20 g/ha): 80%
- Pre-emergence action against MATIN in % (MATIN [8]; dosage 80 g/ha): 100%
- Pre-emergence action against ALOMY (herbicidal activity) (ALOMY [9]; [21]): 100%
- Post-emergence action against ECHCG in % (ECHCG [10]; dosage 20 g/ha): 100%
- Pre-emergence action against VIOTR in % (VIOTR [11]; dosage 20 g/ha): 80%
- Pre-emergence action against VIOTR in % (VIOTR [11]; dosage 80 g/ha): 100%
- Post-emergence action against ABUTH in % (ABUTH [12]; dosage 5 g/ha): 100%
- Post-emergence action against ABUTH in % (ABUTH [12]; dosage 20 g/ha): 100%
- Post-emergence action at 20 g/ha against AMARE in % (AMARE [13]): 100%
- Pre-emergence action against AMARE in % (AMARE [15]; [23]): 100%
- Pre-emergence action against AMARE in % (AMARE [15]; [21]): 100%

Structure (SMILES): CCCNC(=O)c1c(Br)ccc(C(=O)Nc2nnnn2C)c1Cl [Example 1-184]
- pest or weed control at 80 g/ha (ECHCG [1]; [19]): 100%
- pest or weed control at 80 g/ha (ABUTH [2]; [20]): 100%
- pest or weed control at 5 g/ha (ALOMY [3]): 80%
- pest or weed control at 20 g/ha (ALOMY [3]): 80%
- pest or weed control at 80 g/ha (VERPE): 90%
- pest or weed control at 80 g/ha (PHBPU [4]): 80%
- pest or weed control at 20 g/ha (VIOTR [5]; 20 g/ha): 90%
- pest or weed control at 80 g/ha (POLCO): 80%
- pest or weed control at 20 g/ha (MATIN [8]; dosage 20 g/ha): 80%
- pest or weed control at 80 g/ha (MATIN [8]; dosage 80 g/ha): 100%
- pest or weed control at 80 g/ha (ALOMY [9]; [21]): 100%
- pest or weed control at 20 g/ha (ALOMY [9]): 90%
- pest or weed control at 20 g/ha (ECHCG [10]; [22]): 100%
- pest or weed control at 80 g/ha (VIOTR [11]; dosage 80 g/ha): 90%
- pest or weed control at 5 g/ha (ABUTH [12]; dosage 5 g/ha): 80%
- pest or weed control at 20 g/ha (ABUTH [12]; dosage 20 g/ha): 80%
- pest or weed control at 20 g/ha (AMARE [13]): 100%
- pest or weed control at 20 g/ha (PHBPU [14]): 80%
- pest or weed control at 20 g/ha (AMARE [15]; [23]): 100%
- pest or weed control at 80 g/ha (AMARE [15]; [24]): 100%

Structure (SMILES): Cn1nnnc1NC(=O)c1ccc(C(F)(F)F)c(C(=O)NCC(F)(F)F)c1Br [Example 1-211]
- pest or weed control at 80 g/ha (AVEFA; Avena fatua, 504 h, 80 g/ha): 90%
- pest or weed control at 20 g/ha (AVEFA; Avena fatua, 504 h, 20 g/ha, scored visually after 3 weeks, 100% = plants have died, 0% = like control plants): 80%
- pest or weed control at 20 g/ha (ECHCG [1]; Echinochloa crus-galli, 504 h, 20 g/ha): 90%
- pest or weed control at 80 g/ha (ECHCG [1]; [19]): 100%
- pest or weed control at 80 g/ha (ABUTH [2]; [20]): 100%
- pest or weed control at 20 g/ha (ABUTH [2]; Abutilon theophrasti, 504 h, dosage 20 g/ha, scored visually after 3 weeks vs untreated controls, 100% = plants have died, 0% = like control plants, read-out: Pre-emergence action against ABUTH (herbicidal activity in percent)): 100%
- pest or weed control at 80 g/ha (VERPE): 100%
- pest or weed control at 80 g/ha (PHBPU [4]): 80%
- pest or weed control at 80 g/ha (SETVI [7]): 100%
- pest or weed control at 80 g/ha (POLCO): 90%
- pest or weed control at 20 g/ha (MATIN [8]; dosage 20 g/ha): 90%
- pest or weed control at 80 g/ha (MATIN [8]; dosage 80 g/ha): 100%
- pest or weed control at 80 g/ha (ALOMY [9]; [21]): 100%
- pest or weed control at 20 g/ha (ALOMY [9]): 90%
- pest or weed control at 5 g/ha (ECHCG [10]; Echinochloa crus-galli, 504 h, dosage 5 g/ha): 80%
- pest or weed control at 20 g/ha (ECHCG [10]; [22]): 90%
- pest or weed control at 80 g/ha (VIOTR [11]; dosage 80 g/ha): 100%
- pest or weed control at 20 g/ha (ABUTH [12]; dosage 20 g/ha): 80%
- pest or weed control at 20 g/ha (AMARE [13]): 90%
- pest or weed control at 20 g/ha (AMARE [15]; [23]): 100%
- pest or weed control at 80 g/ha (AMARE [15]; [24]): 100%
